Data published in PMC8748874, “Structures of the human peroxisomal fatty acid transporter ABCD1 in a lipid environment” (Communications Biology, 2022).

What was measured:
Assay in all cases: molybdate-based colorimetric ATPase assay
Assay type in all cases: biochemical
ABCD1 (ALDP) [1] = target: T1, ABCD1 (ALDP) (Homo sapiens, UniProt P33897); conditions: 10 mM MgCl2, pH 7.5, 37 °C
T1 construct: full length, codon-optimized synthetic gene; C-terminal eYFP-Rho1D4 tag cut off with 3C protease; HEK293 Flp-In TREX; homodimer; in DDM/CHS, liposomes or MSP1D1 nanodiscs
T1 sequence (P33897 whole entry): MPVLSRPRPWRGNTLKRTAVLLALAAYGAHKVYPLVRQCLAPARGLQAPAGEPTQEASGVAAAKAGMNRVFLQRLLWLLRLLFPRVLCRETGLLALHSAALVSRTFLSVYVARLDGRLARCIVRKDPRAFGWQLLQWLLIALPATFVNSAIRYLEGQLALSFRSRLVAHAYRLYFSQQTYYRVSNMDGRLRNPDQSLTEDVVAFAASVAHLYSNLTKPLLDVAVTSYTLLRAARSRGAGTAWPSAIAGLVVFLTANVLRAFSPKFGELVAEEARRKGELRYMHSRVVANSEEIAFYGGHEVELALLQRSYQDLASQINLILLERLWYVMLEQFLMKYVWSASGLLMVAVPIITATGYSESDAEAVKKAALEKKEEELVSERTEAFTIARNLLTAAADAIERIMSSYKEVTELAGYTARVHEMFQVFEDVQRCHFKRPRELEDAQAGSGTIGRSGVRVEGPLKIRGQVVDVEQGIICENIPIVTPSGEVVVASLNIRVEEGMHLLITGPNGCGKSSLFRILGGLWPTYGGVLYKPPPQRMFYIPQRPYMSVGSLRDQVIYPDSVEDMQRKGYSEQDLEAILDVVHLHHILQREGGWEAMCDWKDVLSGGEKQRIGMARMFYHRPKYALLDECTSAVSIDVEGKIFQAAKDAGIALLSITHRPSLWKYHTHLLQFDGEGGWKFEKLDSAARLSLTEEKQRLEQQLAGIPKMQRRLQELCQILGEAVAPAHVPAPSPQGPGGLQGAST

ABCD1 (ALDP) [2] = target: T1, ABCD1 (ALDP); conditions: DDM/CHS detergent; 5 mM ATP, 10 mM MgCl2, pH 7.5, 37 °C
ABCD1 (ALDP) [3] = target: T1, ABCD1 (ALDP); conditions: DDM/CHS detergent; 5 mM ATP, 10 mM MgCl2, pH 7.5, 37 °C; remark: listed apart in the source
ABCD1 (ALDP) [4] = target: T1, ABCD1 (ALDP); conditions: DDM/CHS detergent; 5 mM ATP, 10 mM MgCl2, pH 7.5, 37 °C; with C24:0-CoA; suggested competition for same site; no stimulation alone

Row | Structure (SMILES) | inhibition of ATPase activity at 5 mM (ABCD1 (ALDP) [1]) | ATPase rate stimulation at 0.1 and 1 mM (ABCD1 (ALDP) [3]) | also measured
1 | Nc1ncnc2c1ncn2[C@@H]1O[C@H](COP(=O)(O)OP(=O)(O)OP(O)(O)=S)[C@@H](O)[C@H]1O [ATPγS] | sensitive to inhibition by sodium orthovanadate (VO4) or the non-hydrolysable ATP analog ATPγS | – | –
2 | CCCCCCCC/C=C\CCCCCCCC(=O)SCCNC(=O)CCNC(=O)[C@H](O)C(C)(C)COP(=O)(O)OP(=O)(O)OC[C@H]1O[C@@H](n2cnc3c(N)ncnc32)[C@H](O)[C@@H]1OP(=O)(O)O [C18:1-CoA] | – | – | ATPase rate stimulation (ABCD1 (ALDP) [2]): we also observed ATPase rate stimulation by C18:1-CoA
3 | CCCCCCCCCCCCCCCCCCCCCCCC(=O)SCCNC(=O)CCNC(=O)[C@H](O)C(C)(C)COP(=O)(O)OP(=O)(O)OC[C@H]1O[C@@H](n2cnc3c(N)ncnc32)[C@H](O)[C@@H]1OP(=O)(O)O [C24:0-CoA] | – | we observed ATPase rate stimulation for C24:0-CoA and C26:0-CoA | –
4 | CCCCCCCCCCCCCCCCCCCCCCCCCC(=O)SCCNC(=O)CCNC(=O)[C@H](O)C(C)(C)COP(=O)(O)OP(=O)(O)OC[C@H]1O[C@@H](n2cnc3c(N)ncnc32)[C@H](O)[C@@H]1OP(=O)(O)O [C26:0-CoA] | – | we observed ATPase rate stimulation for C24:0-CoA and C26:0-CoA | –
5 | CC(=O)SCCNC(=O)CCNC(=O)[C@H](O)C(C)(C)COP(=O)(O)OP(=O)(O)OC[C@H]1O[C@@H](n2cnc3c(N)ncnc32)[C@H](O)[C@@H]1OP(=O)(O)O [acetyl-CoA] | – | – | decrease of C24:0-CoA stimulated ATPase (ABCD1 (ALDP) [4]): it can partially inhibit ATPase stimulation by C24:0-CoA
6 | [O]=[V]([OH])([OH])[OH] [sodium orthovanadate] | ATP hydrolysis was sensitive to inhibition by sodium orthovanadate (VO4) | – | –
